Data set [1] can be described thus: 1-octanol/PBS partition coefficient, logD of the compound at pH 7.4 by HPLC analysis. The data set is classed as physicochemical.
The subject of data set [2] is BXPC-3. Put plainly: Antiproliferative activity against human BXPC-3 cells assessed as inhibition of cell growth incubated for 48 hrs by WST-1 assay. The data set is classed as functional, cell-based. To be noted: BXPC-3, 48 h. Background: Tetrazolium assays rely on reduction of a dye to a coloured formazan, in cell work by metabolically active cells.
In data set [3] the test system is BXPC-3. Put plainly: Antiproliferative activity against human BXPC-3 cells assessed as inhibition of cell growth incubated for 24 hrs by WST-1 assay. Type of data set: functional, cell-based. Particulars: BXPC-3, 24 h.
Data set [4] concerns BXPC-3. Briefly: Antiproliferative activity against human BXPC-3 cells assessed as inhibition of cell growth incubated for 72 hrs by WST-1 assay. The data set is classed as functional, cell-based. Particulars: BXPC-3, 72 h.
For data set [5], the system named is BXPC-3. Put plainly: Induction of apoptosis in human BXPC-3 cells assessed as nuclear condensation at 30 uM incubated for 24 hrs by Hoechst staining based confocal microscopic analysis. Type of data set: functional, cell-based.
In data set [6] the test system is BXPC-3. Briefly: Induction of apoptosis in human BXPC-3 cells assessed as membrane blebbing at 30 uM incubated for 24 hrs by SRS microspectroscopic analysis. The data set is classed as functional, cell-based.
Data set [7] concerns BXPC-3. Put plainly: Induction of apoptosis in human BXPC-3 cells assessed as increase in BAX/Bcl-2 mRNA expression ratio at 30 uM incubated for 24 hrs by RT-PCR analysis relative to control. Type of data set: functional.
The test system of data set [8] is BXPC-3. Put plainly: Induction of apoptosis in human BXPC-3 cells assessed as increase in cleaved caspase 3 level at 10 to 30 uM incubated for 24 hrs by Western blot analysis. The data set is classed as functional, cell-based. To be noted: dose 10-30 µM. On the technique in general: A western blot detects proteins with antibodies after separation by electrophoresis.

Data set [9] deals with BXPC-3. Put plainly: Induction of apoptosis in human BXPC-3 cells assessed as increase in number of dead cells at 30 uM incubated for 24 hrs by EthD-1 staining based fluorescence microscopic analysis relative to control. The data set is classed as functional.
The subject of data set [10] is BXPC-3. Briefly: Induction of apoptosis in human BXPC-3 cells assessed as increase in intensity of lipid-associated SRS bands at 30 uM incubated for 24 hrs by SRS microspectroscopic analysis. The data set is classed as functional, cell-based.
Data set [11] has as its system BXPC-3. Briefly: Induction of apoptosis in human BXPC-3 cells assessed as enlargement of cells at 30 uM incubated for 24 hrs by SRS microspectroscopic analysis. Type of data set: functional, cell-based.
The subject of data set [12] is BXPC-3. Briefly: Induction of apoptosis in human BXPC-3 cells assessed as decrease in number of anti-Ki67 cells at 30 uM incubated for 24 hrs by anti-Ki67 staining based confocal microscopic analysis. Type of data set: functional, cell-based.
In data set [13] the test system is BXPC-3. Put plainly: Induction of apoptosis in human BXPC-3 cells assessed as increase in cleaved PARP level at 30 uM incubated for 24 hrs by Western blot analysis. The data set is classed as functional, cell-based.
Data set [14] has as its system BXPC-3. Briefly: Induction of apoptosis in human BXPC-3 cells assessed as decrease in intensity of protein-associated SRS bands at 30 uM incubated for 24 hrs by SRS microspectroscopic analysis. The data set is classed as functional, cell-based.
Data set [15] in a line: Upregulation of phosphorylated p38 protein expression in human BXPC-3 cells at 10 to 30 uM incubated for 24 hrs by Western blot analysis relative to control. To be noted: dose 10-30 µM. The data set is classed as functional.
The test system of data set [16] is BXPC-3. Briefly: Induction of apoptosis in human BXPC-3 cells assessed as porous appearance at 30 uM incubated for 24 hrs by SRS microspectroscopic analysis. Type of data set: functional, cell-based.
For data set [17], the system named is BXPC-3. Put plainly: Induction of mitochodrial fission in human BXPC-3 cells assessed as reduction in mitochondrial length at 30 uM incubated for 24 hrs by MitoTracker Red CMX ROS staining based confocal microscopic analysis relative to control. Type of data set: functional. On the set-up: scale not given: the % may be the effect or the level left.
Data set [18] is described as follows: Downregulation of phosphorylated ERK protein expression in human BXPC-3 cells at 10 to 30 uM incubated for 24 hrs by Western blot analysis relative to control. The data set is classed as functional. Particulars: dose 10-30 µM.
In data set [19] the test system is BXPC-3. Put plainly: Induction of apoptosis in human BXPC-3 cells assessed as accretion of lipid-like substances at 30 uM incubated for 24 hrs by SRS microspectroscopic analysis. Type of data set: functional, cell-based.
Data set [20] has as its system BXPC-3. Briefly: Induction of apoptosis in human BXPC-3 cells assessed as increase in cleaved PARP level at 10 uM incubated for 24 hrs by Western blot analysis. Type of data set: functional, cell-based.
For data set [21], the system named is BXPC-3. Put plainly: Induction of apoptosis in human BXPC-3 cells assessed as increase in lipid level at 10 uM incubated for 24 hrs by SRS microspectroscopic analysis. The data set is classed as functional, cell-based.
The test system of data set [22] is BXPC-3. Put plainly: Induction of mitochodrial fission in human BXPC-3 cells assessed as reduction in mitochondrial length at 10 uM incubated for 24 hrs by MitoTracker Red CMX ROS staining based confocal microscopic analysis. Type of data set: functional, cell-based.
Data set [23] deals with BXPC-3. Briefly: Induction of apoptosis in human BXPC-3 cells assessed as increase in cleaved caspase 3 level at 10 uM incubated for 24 hrs by Western blot analysis. The data set is classed as functional, cell-based.

Activity calls are given as the source filed them. No cut-off for these calls is given here.

One may read the logD as the decadic logarithm of the distribution of all forms, ionised or not, between an organic phase and buffer at a given pH. The IC50 is the concentration that gives 50% inhibition. Take `COc1ccc(O)c(C(=O)/C=C/c2cccc(OC)c2OC)c1`: the pH-dependent lipophilicity (logD) in [1] is 2.98. Moreover, the IC50 came to 27.1 µM in data set [2], 26.3 µM in data set [3] and 24 µM in data set [4].
In turn, `COc1ccc(OCC(O)CO)c(C(=O)/C=C/c2cccc(OC)c2OC)c1` (stereo not given) displayed a logD in [1] of 2.42. Further, the result in [5], in data set [6], in data set [8], in data set [10], in [11] and in data set [12] was Active. Further, the outcome in [13], in data set [14], in data set [16] and in data set [19] was Active. For the same molecule, the IC50 in [2] is 11.7 µM; in [3], 32.1 µM; in data set [4] it was 7.94 µM. In addition, the Activity in data set [7] amounted to 217.4%; in data set [9], 256.18%; in data set [15], 367.3%; in data set [17], 16%; in [18], 50%.
Consider `Nc1ccn([C@@H]2O[C@H](CO)[C@@H](O)C2(F)F)c(=O)n1` [GEMCITABINE], for which the figures for the IC50 in data set [2], in data set [3] and in data set [4] were 6.83 µM, 12.2 µM and 5.51 µM, respectively. Also, the outcome in data set [20], in [21], in data set [22] and in data set [23] was Active.

Values taken from ChEMBL document CHEMBL5365442, “A novel chalcone derivative exerts anticancer effects by promoting apoptotic cell death of human pancreatic cancer cells” (Bioorg Med Chem, 2023).
